# Laboratory results from doi:10.1101/2025.02.11.637513v1 (bioRxiv, 2025).
# Non-standard residues stand in square brackets, D forms with d. No end group written: not given here. *: point of attachment. Phe(F5) = N[C@@H](Cc1c(F)c(F)c(F)c(F)c1F)C(=O)O; Bip = N[C@@H](Cc1ccc(-c2ccccc2)cc1)C(=O)O; Phe(4-Cl) = N[C@@H](Cc1ccc(Cl)cc1)C(=O)O; Phe(2-Cl) = N[C@@H](Cc1ccccc1Cl)C(=O)O; 1Nal = N[C@@H](Cc1cccc2ccccc12)C(=O)O; Met(O2) = CS(=O)(=O)CC[C@H](N)C(=O)O; Tic = O=C(O)[C@@H]1Cc2ccccc2CN1; Tle = CC(C)(C)[C@H](N)C(=O)O; Abu = CC[C@H](N)C(=O)O; Bn = c1ccc(C*)cc1
# Columns and labels:
# Experiment in all cases: tetrapeptide-ACC substrate cleavage kinetics
# Assay type in all cases: biochemical
# human caspase-1 = molecular target: T1, human caspase-1 (Homo sapiens, UniProt P29466); details: Ac-P4-P3-P2-Asp-ACC substrate, 0.05-500 μM, 2-15 nM enzyme, 37°C, triplicate
# T1 sequence (P29466 120-297 limits assumed): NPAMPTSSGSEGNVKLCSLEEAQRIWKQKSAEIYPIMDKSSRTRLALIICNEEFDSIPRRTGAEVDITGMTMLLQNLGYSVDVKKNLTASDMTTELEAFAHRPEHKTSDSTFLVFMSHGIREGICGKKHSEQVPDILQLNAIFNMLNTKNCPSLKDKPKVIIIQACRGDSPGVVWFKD
# T1 sequence (P29466 317-404 limits assumed): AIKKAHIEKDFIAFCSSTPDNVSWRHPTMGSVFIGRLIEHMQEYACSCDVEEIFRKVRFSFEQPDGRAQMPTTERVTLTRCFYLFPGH
# human caspase-8 = human caspase-8 (Homo sapiens, UniProt Q14790); details: Ac-P4-P3-P2-Asp-ACC substrate, 0.05-500 μM, 6-42 nM enzyme, 37°C, triplicate
# human caspase-3 = molecular target: T2, human caspase-3 (Homo sapiens, UniProt P42574); details: Ac-P4-P3-P2-Asp-ACC substrate, 0.05-500 μM, 3-35 nM enzyme, 37°C, triplicate
# T2 sequence (P42574 29-175 limits assumed): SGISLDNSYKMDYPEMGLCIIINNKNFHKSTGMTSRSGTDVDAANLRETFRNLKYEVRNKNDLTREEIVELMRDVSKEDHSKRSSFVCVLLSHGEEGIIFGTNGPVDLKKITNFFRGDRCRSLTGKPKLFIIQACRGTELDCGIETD
# T2 sequence (P42574 176-277 limits assumed): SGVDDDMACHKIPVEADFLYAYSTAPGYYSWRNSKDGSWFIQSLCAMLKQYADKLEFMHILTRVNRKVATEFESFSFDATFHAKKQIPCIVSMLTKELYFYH
# human caspase-5 = molecular target: T3, human caspase-5 (Homo sapiens, UniProt P51878); details: Ac-P4-P3-P2-Asp-ACC substrate, 0.05-500 μM, 20-250 nM enzyme, 37°C, triplicate
# T3 sequence (P51878 137-327 limits assumed): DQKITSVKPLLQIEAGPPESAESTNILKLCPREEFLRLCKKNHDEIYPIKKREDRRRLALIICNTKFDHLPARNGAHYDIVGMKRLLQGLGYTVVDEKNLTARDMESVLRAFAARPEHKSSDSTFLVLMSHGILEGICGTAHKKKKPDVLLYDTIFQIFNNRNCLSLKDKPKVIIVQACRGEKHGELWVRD
# T3 sequence (P51878 347-434 limits assumed): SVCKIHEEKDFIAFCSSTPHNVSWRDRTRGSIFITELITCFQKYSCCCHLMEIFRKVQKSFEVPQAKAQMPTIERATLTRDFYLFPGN
# human caspase-9 = molecular target: T4, human caspase-9 (Homo sapiens, UniProt P55211); details: Ac-P4-P3-P2-Asp-ACC substrate, 0.05-500 μM, 20-150 nM enzyme, 37°C, triplicate
# T4 sequence (P55211 1-315 limits assumed): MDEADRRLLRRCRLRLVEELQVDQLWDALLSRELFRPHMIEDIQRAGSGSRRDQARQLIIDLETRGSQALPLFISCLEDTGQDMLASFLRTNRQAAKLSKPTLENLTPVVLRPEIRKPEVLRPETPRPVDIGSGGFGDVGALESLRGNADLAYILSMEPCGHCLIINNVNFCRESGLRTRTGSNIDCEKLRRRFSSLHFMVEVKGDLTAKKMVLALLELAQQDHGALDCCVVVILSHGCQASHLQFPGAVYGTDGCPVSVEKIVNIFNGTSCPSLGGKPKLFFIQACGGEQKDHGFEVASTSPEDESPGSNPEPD
# T4 sequence (P55211 331-416 limits assumed): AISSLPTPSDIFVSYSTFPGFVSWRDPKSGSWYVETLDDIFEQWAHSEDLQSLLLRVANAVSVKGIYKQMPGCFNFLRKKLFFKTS
# human caspase-4 = molecular target: T5, human caspase-4 (Homo sapiens, UniProt P49662); details: Ac-P4-P3-P2-Asp-ACC substrate, 0.05-500 μM, 35-200 nM enzyme, 37°C, triplicate
# T5 sequence (P49662 81-270 limits assumed): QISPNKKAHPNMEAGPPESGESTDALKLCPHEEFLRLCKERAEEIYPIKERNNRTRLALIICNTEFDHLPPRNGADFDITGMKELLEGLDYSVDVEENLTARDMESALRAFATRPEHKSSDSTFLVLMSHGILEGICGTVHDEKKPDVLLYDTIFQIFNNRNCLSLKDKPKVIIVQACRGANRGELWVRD
# T5 sequence (P49662 290-377 limits assumed): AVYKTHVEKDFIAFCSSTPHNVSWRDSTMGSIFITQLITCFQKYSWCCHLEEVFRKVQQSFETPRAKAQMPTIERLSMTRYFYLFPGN
# human caspase-7 = molecular target: T6, human caspase-7 (Homo sapiens, UniProt P55210); details: Ac-P4-P3-P2-Asp-ACC substrate, 0.05-500 μM, 40-400 nM enzyme, 37°C, triplicate
# T6 sequence (P55210 24-198 limits assumed): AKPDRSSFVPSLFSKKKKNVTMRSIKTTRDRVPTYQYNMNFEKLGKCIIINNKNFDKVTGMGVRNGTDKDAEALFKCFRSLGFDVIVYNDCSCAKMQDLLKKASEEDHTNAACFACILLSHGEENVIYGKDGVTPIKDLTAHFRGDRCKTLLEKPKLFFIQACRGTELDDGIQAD
# T6 sequence (P55210 207-303 limits assumed): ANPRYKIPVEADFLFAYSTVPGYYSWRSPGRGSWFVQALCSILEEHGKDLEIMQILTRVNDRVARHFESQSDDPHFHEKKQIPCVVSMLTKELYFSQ
# Sequence of human caspase-8 (Q14790 217-374 limits assumed): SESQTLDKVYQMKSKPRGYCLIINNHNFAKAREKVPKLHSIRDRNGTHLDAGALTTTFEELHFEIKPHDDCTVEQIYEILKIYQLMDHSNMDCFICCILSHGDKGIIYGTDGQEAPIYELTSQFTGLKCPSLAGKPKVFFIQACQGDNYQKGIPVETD
# Sequence of human caspase-8 (Q14790 385-479 limits assumed): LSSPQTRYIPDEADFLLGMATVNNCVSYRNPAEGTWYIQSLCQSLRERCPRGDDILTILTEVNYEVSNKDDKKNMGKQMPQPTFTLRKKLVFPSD
Substance,kcat/KM caspase-1 (human caspase-1),kcat/KM caspase-8 (human caspase-8),kcat/KM caspase-3 (human caspase-3),kcat/KM caspase-5 (human caspase-5),kcat/KM caspase-9 (human caspase-9),kcat/KM caspase-4 (human caspase-4),kcat/KM caspase-7 (human caspase-7)
Trp(Me)-Dab-Pip-Asp,176 200 M^-1s^-1,150 M⁻¹ s⁻¹,740 M⁻¹ s⁻¹,3 930 M^-1s^-1,120 M⁻¹ s⁻¹,4 340 M^-1s^-1,20 M⁻¹ s⁻¹
Asp-Glu-Val-Asp,280 M⁻¹ s⁻¹,73 200 M^-1s^-1,,180 M⁻¹ s⁻¹,280 M⁻¹ s⁻¹,260 M⁻¹ s⁻¹,85 000 M^-1s^-1
Y(Me)QTD,105 200 M^-1s^-1,2 670 M^-1s^-1,8 740 M^-1s^-1,2 420 M^-1s^-1,550 M⁻¹ s⁻¹,810 M⁻¹ s⁻¹,1 530 M^-1s^-1
W(Me)Q[Tic]D,268 600 M^-1s^-1,2 580 M^-1s^-1,4 340 M^-1s^-1,14 500 M^-1s^-1,1 140 M^-1s^-1,11 300 M^-1s^-1,290 M⁻¹ s⁻¹
WT(Bn)HD,644 300 M^-1s^-1,8 230 M^-1s^-1,2 760 M^-1s^-1,10 640 M^-1s^-1,11 220 M^-1s^-1,6 010 M^-1s^-1,120 M⁻¹ s⁻¹
Phe(2Cl)-Glu-Pip-Asp,,11 430 M^-1s^-1,103 000 M^-1s^-1,1 830 M^-1s^-1,2 300 M^-1s^-1,9 760 M^-1s^-1,10 730 M^-1s^-1
Tyr-Glu-Lys-Asp,39 500 M^-1s^-1,2 720 M^-1s^-1,580 M⁻¹ s⁻¹,3 430 M^-1s^-1,130 M⁻¹ s⁻¹,750 M⁻¹ s⁻¹,80 M⁻¹ s⁻¹
Tyr-Gln-Pro-Asp,47 200 M^-1s^-1,2 170 M^-1s^-1,1 920 M^-1s^-1,1 590 M^-1s^-1,350 M⁻¹ s⁻¹,740 M⁻¹ s⁻¹,300 M⁻¹ s⁻¹
Pro-Met-His-Asp,13 200 M^-1s^-1,3 570 M^-1s^-1,3 160 M^-1s^-1,130 M⁻¹ s⁻¹,13 000 M^-1s^-1,460 M⁻¹ s⁻¹,100 M⁻¹ s⁻¹
W[Met(O2)]HD,547 600 M^-1s^-1,2 380 M^-1s^-1,4 970 M^-1s^-1,15 430 M^-1s^-1,6 700 M^-1s^-1,9 620 M^-1s^-1,60 M⁻¹ s⁻¹
[1Nal]Q[Abu]D,168 100 M^-1s^-1,4 420 M^-1s^-1,1 660 M^-1s^-1,4 640 M^-1s^-1,100 M⁻¹ s⁻¹,2 190 M^-1s^-1,220 M⁻¹ s⁻¹
[Tle][Phe(4-Cl)]HD,13 300 M^-1s^-1,10 600 M^-1s^-1,21 330 M^-1s^-1,7 360 M^-1s^-1,9 100 M^-1s^-1,2 500 M^-1s^-1,160 M⁻¹ s⁻¹
Glu(Ochx)-Bip-His(Bzl)-Asp,< 10 M⁻¹ s⁻¹,110 M⁻¹ s⁻¹,< 10 M⁻¹ s⁻¹,< 10 M⁻¹ s⁻¹,40 M⁻¹ s⁻¹,< 10 M⁻¹ s⁻¹,20 M⁻¹ s⁻¹
Val-Gly-His-Asp,2 000 M^-1s^-1,1 110 M^-1s^-1,7 360 M^-1s^-1,390 M⁻¹ s⁻¹,3 800 M^-1s^-1,480 M⁻¹ s⁻¹,90 M⁻¹ s⁻¹
[Phe(2-Cl)]E[Tic]D,243 800 M^-1s^-1,13 980 M^-1s^-1,75 860 M^-1s^-1,16 790 M^-1s^-1,5 410 M^-1s^-1,15 180 M^-1s^-1,10 040 M^-1s^-1
Trp-Thr-ProAsp,110 000 M^-1s^-1,960 M⁻¹ s⁻¹,700 M⁻¹ s⁻¹,3 180 M^-1s^-1,110 M⁻¹ s⁻¹,1 920 M^-1s^-1,30 M⁻¹ s⁻¹
[Tle][Bip]HD,10 900 M^-1s^-1,11 700 M^-1s^-1,16 920 M^-1s^-1,5 280 M^-1s^-1,8 430 M^-1s^-1,2 820 M^-1s^-1,160 M⁻¹ s⁻¹
"Val-Tyr(2,6Cl2Bzl)-His-Asp",< 10 M⁻¹ s⁻¹,750 M⁻¹ s⁻¹,3 400 M^-1s^-1,,480 M⁻¹ s⁻¹,100 M⁻¹ s⁻¹,80 M⁻¹ s⁻¹
Y[Phe(F5)]HD,161 900 M^-1s^-1,3 150 M^-1s^-1,8 500 M^-1s^-1,14 900 M^-1s^-1,7 300 M^-1s^-1,2 270 M^-1s^-1,210 M⁻¹ s⁻¹
Tyr-Gln-2Aoc-Asp,,4 970 M^-1s^-1,2 580 M^-1s^-1,2 860 M^-1s^-1,310 M⁻¹ s⁻¹,1 100 M^-1s^-1,190 M⁻¹ s⁻¹
